“Also recorded” adds a separate entry of the source.
Key:
[1] = system: adenocarcinoma human alveolar basal epithelial cells (A549); assay: MTT cytotoxic / anti-proliferative assay, A549; type: cell-based
Experimental: (§1) The benxoxazepine derivative compound of the present disclosure was dissolved in DMSO to give a […] concentration. The DMSO concentration was less than 1.0% in all experiments and controls.
(§2) The evaluation of anti-proliferative activity was preformed to different cancer cells named human cervical adenocarcinoma (HeLa), adenocarcinoma human alveolar basal epithelial cells (A549), human breast cancer (MCF-7), colon adenocarcinoma Caco-2, compared with human fibroblast cell lines (F2). All cells were grown in Dulbecco's modified Eagle's minimal essential medium (DMEM), supplemented with 25 mM glucose, 10% inactivated fetal bovine serum (Flow, McLean, VA, USA), and 1% penicillin/streptomycin, and maintained at 37° C. in a humidified incubator with 5% CO2. The cells with 30-40 passages were used for further investigations.
(§3) Exponentially growing cells A549, HeLa, Caco-2, MCF-7, and normal fibroblast cell cells have been washed and seeded at 3×10^3 cells/well (100 μL/well) in 96 well microplates (Greiner, Germany). After 24 h, cells were confluent, and media was changed, and cells were incubated with the compound of the present disclosure (200-1 μg/mL) for 24 h. In vitro anti-proliferative activity was measured by the cell growth inhibition assay using 3-(4,5-dimethyl-thiazol-2-yl)-2,5-di-phenyltetrazolium bromide (MTT) assay according to the manufacturer's instructions (Promega Corporation, Madison, WI). Briefly, the assay measured the formation of blue formazan product as a result of the reduction of MTT by mitochondrial dehydrogenase, which indicates the normal function of mitochondria and cell viability. The amount of formazan was quantified using a microplate reader (Thermo Fisher Scientific, Waltham, MA, USA) and compared to the optical density obtained for the control (untreated) at 570 nm. The IC50 values were calculated according to the equation for Boltzmann sigmoidal concentration response curve using the nonlinear regression models (GraphPad, Prism Version 7, San Diego, CA, USA). The average of three replicates of IC50 values were calculated and mentioned in the present disclosure Table 1.
(§4) The anti-proliferative activity of the investigated compound of formula 1 of the present disclosure was expressed in IC50 values (the concentration needed to inhibit 50% of cell growth) compared to untreated cells (negative control).

[2] = system: human cervical adenocarcinoma (HeLa); assay: MTT cytotoxic / anti-proliferative assay, HeLa; type: cell-based
Experimental: as §1, §2
as §3, with “After 24 h, cells were confluent, and media was changed, and cells were incubated with the compound of the present disclosure (200-1 μg/mL) for 24 h.” left out, “1. […]” for “1.”

[3] = system: colon adenocarcinoma Caco-2; assay: MTT cytotoxic / anti-proliferative assay, Caco-2; type: cell-based, human; conditions: MTT
[4] = system: human breast cancer (MCF-7); assay: MTT cytotoxic / anti-proliferative assay, MCF-7; type: cell-based
Experimental: as §1, §2, §3, §4

[5] = system: human fibroblast cell lines (F2); assay: MTT cytotoxic / anti-proliferative assay, normal fibroblast; type: cell-based
Experimental: as §1, §2
as §3, with “After 24 h, cells were confluent, and media was changed, and cells were incubated with the compound of the present disclosure (200-1 μg/mL) for 24 h.” left out, “1. […]” for “1.”

[6] = MTT cytotoxic / anti-proliferative assay, Caco-2; type: cell-based, human; conditions: human; calculated SI for cancer cell Caco-2; SI higher than 1.0 considered selective to cancer cell; read-out: Selectivity index (SI) Caco-2
[7] = system: release of IL-6 of A549 cell lines; assay: IL-6 release ELISA, A549; type: cell-based, human; conditions: 1, 5, 10, 25, 50 μg/mL, overnight, ELISA of supernatant
Experimental: (§5) Non-treated cells were used as negative controls. […] All incubation steps were performed at room temperature.

[8] = system: release of IL-6 of HeLa cell lines; assay: IL-6 release ELISA, HeLa; type: cell-based, human; conditions: 1, 5, 10, 25, 50 μg/mL, overnight, ELISA of supernatant
Experimental: as §5

[9] = system: release of IL-6 of MCF-7 cell lines; assay: IL-6 release ELISA, MCF-7; type: cell-based, human; conditions: 1, 5, 10, 25, 50 μg/mL, overnight, ELISA of supernatant
Experimental: as §5

[10] = system: release of IL-6 of normal fibroblast cell; assay: IL-6 release ELISA, normal fibroblast; type: cell-based, human; conditions: 1, 5, 10, 25, 50 μg/mL, overnight, ELISA of supernatant
Experimental: as §5

[11] = system: release of TNF-α of Caco-2 cell lines; assay: TNF-α release ELISA, Caco-2; type: cell-based, human; conditions: 1, 5, 10, 25, 50 μg/mL, overnight, ELISA of supernatant
Experimental: as §5

[12] = system: release of TNF-α of normal fibroblast cell; assay: TNF-α release ELISA, normal fibroblast; type: cell-based, human; conditions: 1, 5, 10, 25, 50 μg/mL, overnight, ELISA of supernatant
Experimental: as §5

[13] = system: release of TNF-α of A549 cell lines; assay: TNF-α release ELISA, A549; type: cell-based, human; conditions: 1, 5, 10, 25, 50 μg/mL, overnight, ELISA of supernatant
Experimental: as §5

[14] = system: release of TNF-α of HeLa cell lines; assay: TNF-α release ELISA, HeLa; type: cell-based, human; conditions: 1, 5, 10, 25, 50 μg/mL, overnight, ELISA of supernatant
Experimental: as §5

[15] = system: release of TNF-α of MCF-7 cell lines; assay: TNF-α release ELISA, MCF-7; type: cell-based, human; conditions: 1, 5, 10, 25, 50 μg/mL, overnight, ELISA of supernatant
Experimental: as §5

[16] = MTT, 24 h incubation, average of three replicates
[17] = 24 h incubation, average of three replicates

C[S+](C)[O-] [DMSO %, dimethyl sulfoxide]
IC50 A549 (DMSO %) ([1]; MTT, DMSO, value as % DMSO): 0.33 ± 0.05% | IC50 HeLa (DMSO %) ([2]; DMSO, value as % DMSO): 0.15 ± 0.02% | IC50 Caco-2 (DMSO %) ([3]; DMSO, value as % DMSO): 23.40 ± 3.20% | IC50 MCF-7 (DMSO %) ([4]; MTT, DMSO, value as % DMSO): 0.097 ± 0.02% | IC50 Fibroblast (DMSO %) ([5]; DMSO, value as % DMSO): 0.13 ± 0.02%

c1ccc2c3c(ccc2c1)OCCn1c-3nc2ccccc21 [compound of the general Formula (I)]
IC50 ([1]; Homo sapiens, A549, MTT, 24 h incubation, average of three replicates): 15.7 ± 0.54 µg/mL | Selectivity index (SI) A549 ([1]; calculated SI for cancer cell A549, SI higher than 1.0 considered selective to cancer cell): 1.27 | IC50 ([2]; Homo sapiens, HeLa, 24 h incubation, average of three replicates): 0.003 µg/mL | selectivity ratio at 24 h [6]: 0.48 | IC50 ([3]; Homo sapiens, Caco-2, 24 h incubation, average of three replicates): 41.3 µg/mL | IC50 ([4]; Homo sapiens, MCF7, MTT, 24 h incubation, average of three replicates): 17.6 ± 0.72 µg/mL | Selectivity index (SI) MCF-7 ([4]; calculated SI for cancer cell MCF-7, SI higher than 1.0 considered selective to cancer cell): 1.13 | IC50 ([5]; Homo sapiens, Fibroblast, 24 h incubation, average of three replicates): 19.9 ± 1.4 µg/mL | effect on the release of IL-6, A549 [7]: stimulated the release of IL-6 | effect on the release of IL-6, A549 ([7]; listed as tested compound): able to stimulate the release of IL-6 | effect on the release of IL-6, HeLa [8]: stimulated the release of IL-6 | effect on the release of IL-6, HeLa ([8]; listed as tested compound): able to stimulate the release of IL-6 | effect on the release of IL-6, MCF-7 [9]: stimulated the release of IL-6 | effect on the release of IL-6, MCF-7 ([9]; listed as tested compound): able to stimulate the release of IL-6 | effect on the release of IL-6, normal fibroblast cells ([10]; listed as tested compound): no effect; also recorded: not able to induce the release | effect on the release of TNF-α, Caco-2 [11]: only 50 μg/mL concentration was able to stimulate Caco-2 cell lines to significantly release TNF-α | effect on the release of TNF-α, Caco-2 ([11]; listed as tested compound): able to stimulate Caco-2 cell lines to significantly release TNF-α when treated with 50 μg/mL concentration only | effect on the release of TNF-α, normal fibroblast cells [12]: not able to induce the release

N.N.[Cl][Pt][Cl] [Cisplatin, cisplatin, reference compound]
IC50 A549 [1, 16]: 3.13 ± 0.53 µg/mL | IC50 HeLa [2, 17]: 0.13 µg/mL | IC50 MCF-7 [4, 16]: 1.51 ± 0.10 µg/mL | IC50 Fibroblast [5, 17]: 2.83 ± 0.12 µg/mL | effect on the release of IL-6, normal fibroblast cells [10]: not able to induce the release | effect on the release of TNF-α, A549 [13]: release TNF-α | effect on the release of TNF-α, HeLa [14]: release TNF-α | effect on the release of TNF-α, MCF-7 [15]: release TNF-α | effect on the release of TNF-α, normal fibroblast cells [12]: not able to induce the release
